Test results taken from PubChem BioAssay (NCI).
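Tested at 5 concentrations; 48 h exposure; 96-well plates; endpoints linearly interpolated, else capped at highest concentration. TGI: total growth inhibition.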

Tests used:
Test in all cases: NCI-60 cell line screen, 48 h
OVCAR-5 ovarian = test system: OVCAR-5 ovarian
A498 renal = test system: A498 renal
SN12C renal = test system: SN12C renal
SNB-19 CNS = test system: SNB-19 CNS
UO-31 renal = test system: UO-31 renal
SK-OV-3 ovarian = test system: SK-OV-3 ovarian
TK-10 renal = test system: TK-10 renal
IGROV1 ovarian = test system: IGROV1 ovarian
SF-268 CNS = test system: SF-268 CNS
HS 578T breast = test system: HS 578T breast
K-562 leukemia = test system: K-562 leukemia
HOP-62 NSCLC = test system: HOP-62 NSCLC
COLO 205 colon = test system: COLO 205 colon
PC-3 prostate = test system: PC-3 prostate
HCT-116 colon = test system: HCT-116 colon
U251 CNS = test system: U251 CNS
SNB-75 CNS = test system: SNB-75 CNS
MOLT-4 leukemia = test system: MOLT-4 leukemia
SK-MEL-5 melanoma = test system: SK-MEL-5 melanoma
SF-539 CNS = test system: SF-539 CNS
NCI-H23 lung = test system: NCI-H23 lung
M14 melanoma = test system: M14 melanoma
RPMI-8226 leukemia = test system: RPMI-8226 leukemia
NCI-H522 lung = test system: NCI-H522 lung
HOP-92 NSCLC = test system: HOP-92 NSCLC
HCT-15 colon = test system: HCT-15 colon
A549 NSCLC = test system: A549 NSCLC
HL-60(TB) leukemia = test system: HL-60(TB) leukemia
RXF 393 renal = test system: RXF 393 renal
MDA-MB-231 breast = test system: MDA-MB-231 breast
SW-620 colon = test system: SW-620 colon
OVCAR-3 ovarian = test system: OVCAR-3 ovarian
DU-145 prostate = test system: DU-145 prostate
OVCAR-4 ovarian = test system: OVCAR-4 ovarian
SK-MEL-28 melanoma = test system: SK-MEL-28 melanoma
SK-MEL-2 melanoma = test system: SK-MEL-2 melanoma
HCC-2998 colon = test system: HCC-2998 colon
T-47D breast = test system: T-47D breast
KM12 colon = test system: KM12 colon
MALME-3M melanoma = test system: MALME-3M melanoma
CAKI-1 renal = test system: CAKI-1 renal
MDA-N = test system: MDA-N
UACC-62 melanoma = test system: UACC-62 melanoma
MDA-MB-435 = test system: MDA-MB-435
CCRF-CEM leukemia = test system: CCRF-CEM leukemia
MCF7 breast = test system: MCF7 breast
NCI-H226 lung = test system: NCI-H226 lung
LOX IMVI melanoma = test system: LOX IMVI melanoma
HT29 colon = test system: HT29 colon
ACHN renal = test system: ACHN renal
OVCAR-8 ovarian = test system: OVCAR-8 ovarian
786-0 renal = test system: 786-0 renal
UACC-257 melanoma = test system: UACC-257 melanoma
NCI-H460 lung = test system: NCI-H460 lung
SF-295 CNS = test system: SF-295 CNS
EKVX NSCLC = test system: EKVX NSCLC

## C=C(CN(C)C)C1(c2ccccc2)CC2(CCCC2)C(=O)O1 (stereo unspecified)
OVCAR-5 ovarian
  TGI: > 100 µM
A498 renal
  TGI: > 100 µM
SN12C renal
  TGI: > 100 µM
SNB-19 CNS
  TGI: > 100 µM
UO-31 renal
  TGI: 62.9 µM
SK-OV-3 ovarian
  TGI: > 100 µM
TK-10 renal
  TGI: > 100 µM
IGROV1 ovarian
  TGI: > 100 µM
SF-268 CNS
  TGI: > 100 µM
HS 578T breast
  TGI: > 100 µM
K-562 leukemia
  TGI: > 100 µM
HOP-62 NSCLC
  TGI: > 100 µM
COLO 205 colon
  TGI: 74.7 µM
PC-3 prostate
  TGI: > 100 µM
HCT-116 colon
  TGI: > 100 µM
U251 CNS
  TGI: > 100 µM
SNB-75 CNS
  TGI: > 100 µM
MOLT-4 leukemia
  TGI: 78.1 µM
SK-MEL-5 melanoma
  TGI: > 100 µM
SF-539 CNS
  TGI: > 100 µM
NCI-H23 lung
  TGI: 82.4 µM
M14 melanoma
  TGI: > 100 µM
RPMI-8226 leukemia
  TGI: > 100 µM
NCI-H522 lung
  TGI: 47.5 µM
HOP-92 NSCLC
  TGI: 56.1 µM
HCT-15 colon
  TGI: > 100 µM
A549 NSCLC
  TGI: > 100 µM
HL-60(TB) leukemia
  TGI: 53.8 µM
RXF 393 renal
  TGI: > 100 µM
MDA-MB-231 breast
  TGI: > 100 µM
SW-620 colon
  TGI: > 100 µM
OVCAR-3 ovarian
  TGI: > 100 µM
DU-145 prostate
  TGI: > 100 µM
OVCAR-4 ovarian
  TGI: > 100 µM
SK-MEL-28 melanoma
  TGI: > 100 µM
SK-MEL-2 melanoma
  TGI: > 100 µM
HCC-2998 colon
  TGI: > 100 µM
T-47D breast
  TGI: > 100 µM
KM12 colon
  TGI: > 100 µM
MALME-3M melanoma
  TGI: > 100 µM
CAKI-1 renal
  TGI: > 100 µM
MDA-N
  TGI: > 100 µM
UACC-62 melanoma
  TGI: > 100 µM
MDA-MB-435
  TGI: > 100 µM
CCRF-CEM leukemia
  TGI: 53.4 µM
MCF7 breast
  TGI: > 100 µM
NCI-H226 lung
  TGI: > 100 µM
LOX IMVI melanoma
  TGI: > 100 µM
HT29 colon
  TGI: 74.7 µM
ACHN renal
  TGI: > 100 µM
OVCAR-8 ovarian
  TGI: > 100 µM
786-0 renal
  TGI: > 100 µM
UACC-257 melanoma
  TGI: > 100 µM
NCI-H460 lung
  TGI: > 100 µM
SF-295 CNS
  TGI: > 100 µM
EKVX NSCLC
  TGI: > 100 µM
